From PubChem BioAssay AID332 (DTP/NCI, 2004)
Where “and” joins values, the source holds several entries; their conditions need not be identical. Identical values can stand only once. Results filed as inconclusive are left out.

Tested on: mice, ADJ-PC-20 plasma cell tumor sc, T/C %
Assay: NCI In Vivo Anticancer Drug Screen. Data for tumor model ADJ-PC-20 Plasma Cell (subcutaneous) in unknown mice
Conditions: endpoint: mean tumor weight, higher = larger tumour
Experimental: The antitumor activity of compounds was measured in mice bearing transplantable tumors. Survival or tumor size were measured and the results are expressed as the measurement made in the treated group (T) divided by the measurement made in the vehicle treated control group (C). The tumor model used in this assay is ADJ-PC-20 Plasma Cell (subcutaneous) in unknown mice

[1] = dose: 31.25 mg/kg/injection, schedule: Q01DX010 (sc), vehicle: steriod suspending solution

## C[C@]12CCC(=O)C=C1CC[C@@H]1[C@@H]2C(=O)C[C@@]2(C)[C@H]1CC[C@]2(O)C(=O)CO
[1]
  T/C: 7 % of control
dose: 125.0 mg/kg/injection, schedule: Q01DX010 (sc), vehicle: steriod suspending solution
  T/C: 11 % of control

## CC[C@H](c1ccc(O)cc1)[C@@H](CC)c1ccc(O)cc1
[1]
  T/C: 185 % of control
dose: 62.5 mg/kg/injection, schedule: Q01DX010 (sc), vehicle: steriod suspending solution
  T/C: 180 % of control

## O=C(Nc1ccc(C2=NCCCN2)cc1)c1ccc(NC(=O)c2ccc(C3=NCCCN3)cc2)cc1
dose: 0.12 mg/kg/injection, schedule: Q01DX010 (ip), vehicle: carboxymethylcellulose (CMC)
  T/C: 99 % of control
dose: 0.25 mg/kg/injection, schedule: Q01DX010 (ip), vehicle: carboxymethylcellulose (CMC)
  T/C: 87 % of control
dose: 0.5 mg/kg/injection, schedule: Q01DX010 (ip), vehicle: carboxymethylcellulose (CMC)
  T/C: 109 % of control
dose: 1.0 mg/kg/injection, schedule: Q01DX010 (ip), vehicle: carboxymethylcellulose (CMC)
  T/C: 84 % of control
dose: 2.0 mg/kg/injection, schedule: Q01DX010 (ip), vehicle: carboxymethylcellulose (CMC)
  T/C: 94 % of control
dose: 4.0 mg/kg/injection, schedule: Q01DX010 (ip), vehicle: carboxymethylcellulose (CMC)
  T/C: 83 % of control
dose: 8.0 mg/kg/injection, schedule: Q01DX010 (ip), vehicle: carboxymethylcellulose (CMC)
  T/C: 56 % of control

## Nc1nc2n[nH]nc2c(=O)[nH]1
dose: 12.5 mg/kg/injection, schedule: Q01DX010 (ip), vehicle: other
  T/C: 113 % of control
dose: 75.0 mg/kg/injection, schedule: Q01DX010 (ip), vehicle: other
  T/C: 58 % of control
dose: 100.0 mg/kg/injection, schedule: Q01DX010 (ip), vehicle: other
  T/C: 83 % of control

## CC[C@]1(O)C[C@H]2CN(CCc3c([nH]c4ccccc34)[C@@](C(=O)OC)(c3cc4c(cc3OC)N(C=O)[C@H]3[C@@](O)(C(=O)OC)[C@H](OC(C)=O)[C@]5(CC)C=CCN6CC[C@]43[C@@H]65)C2)C1
dose: 0.12 mg/kg/injection, schedule: Q01DX010 (ip), vehicle: water
  T/C: 109 % of control
dose: 0.5 mg/kg/injection, schedule: Q01DX010 (ip), vehicle: water
  T/C: 105 % of control
dose: 31.0 micrograms/kg/injection, schedule: Q01DX010 (ip), vehicle: water
  T/C: 97 % of control
dose: 62.0 micrograms/kg/injection, schedule: Q01DX010 (ip), vehicle: water
  T/C: 95 % of control
dose: 125.0 micrograms/kg/injection, schedule: Q01DX010 (ip), vehicle: water
  T/C: 90 % of control
dose: 250.0 micrograms/kg/injection, schedule: Q01DX010 (ip), vehicle: water
  T/C: 63 % of control

## Cc1cc(N(CCCl)CCCl)ccc1N=Nc1ccccc1C(=O)O
dose: 0.95 mg/kg/injection, schedule: Q01DX010 (ip), vehicle: carboxymethylcellulose (CMC)
  T/C: 60 % of control
dose: 1.9 mg/kg/injection, schedule: Q01DX010 (ip), vehicle: carboxymethylcellulose (CMC)
  T/C: 56 % of control
dose: 3.8 mg/kg/injection, schedule: Q01DX010 (ip), vehicle: carboxymethylcellulose (CMC)
  T/C: 38 % of control
dose: 7.5 mg/kg/injection, schedule: Q01DX010 (ip), vehicle: carboxymethylcellulose (CMC)
  T/C: 25 % of control

## O=c1cnn(C2OC(CO)C(O)C2O)c(=O)[nH]1 (stereo unspecified)
dose: 31.0 mg/kg/injection, schedule: Q01DX011 (ip), vehicle: water
  T/C: 51 % of control
dose: 62.5 mg/kg/injection, schedule: Q01DX011 (ip), vehicle: water
  T/C: 52 % of control
dose: 125.0 mg/kg/injection, schedule: Q01DX010 (ip), vehicle: water
  T/C: 41 % of control
dose: 125.0 mg/kg/injection, schedule: Q01DX011 (ip), vehicle: water
  T/C: 69 % of control
dose: 250.0 mg/kg/injection, schedule: Q01DX010 (ip), vehicle: water
  T/C: 49 % of control
dose: 250.0 mg/kg/injection, schedule: Q01DX011 (ip), vehicle: water
  T/C: 30 % of control

## O=NN(CCCl)C(=O)NCCCl
dose: 0.8 mg/kg/injection, schedule: Q01DX010 (ip), vehicle: saline
  T/C: 102 % of control
dose: 1.6 mg/kg/injection, schedule: Q01DX010 (ip), vehicle: saline
  T/C: 87 % of control
dose: 6.2 mg/kg/injection, schedule: Q01DX010 (ip), vehicle: saline
  T/C: 48 % of control

## O=C1CCC(N2C(=O)c3ccccc3C2=O)C(=O)N1 (stereo unspecified)
dose: 18.75 mg/kg/injection, schedule: Q01DX010 (ip), vehicle: carboxymethylcellulose (CMC)
  T/C: 55 % of control
dose: 37.5 mg/kg/injection, schedule: Q01DX010 (ip), vehicle: carboxymethylcellulose (CMC)
  T/C: 104 % of control
dose: 75.0 mg/kg/injection, schedule: Q01DX010 (ip), vehicle: carboxymethylcellulose (CMC)
  T/C: 107 % of control
dose: 150.0 mg/kg/injection, schedule: Q01DX010 (ip), vehicle: carboxymethylcellulose (CMC)
  T/C: 82 % of control and 99 % of control
dose: 300.0 mg/kg/injection, schedule: Q01DX010 (ip), vehicle: carboxymethylcellulose (CMC)
  T/C: 107 % of control and 113 % of control
dose: 600.0 mg/kg/injection, schedule: Q01DX010 (ip), vehicle: carboxymethylcellulose (CMC)
  T/C: 82 % of control

## Nc1nc(=S)c2ncn(C3OC(CO)C(O)C3O)c2[nH]1 (stereo unspecified)
dose: 0.31 mg/kg/injection, schedule: Q01DX010 (ip), vehicle: carboxymethylcellulose (CMC)
  T/C: 63 % of control
dose: 0.63 mg/kg/injection, schedule: Q01DX010 (ip), vehicle: carboxymethylcellulose (CMC)
  T/C: 31 % of control
dose: 1.25 mg/kg/injection, schedule: Q01DX010 (ip), vehicle: carboxymethylcellulose (CMC)
  T/C: 7 % of control
dose: 2.5 mg/kg/injection, schedule: Q01DX010 (ip), vehicle: carboxymethylcellulose (CMC)
  T/C: 1 % of control

## O=c1[nH]c(=O)n(C2CC(O)C(CO)O2)cc1F (stereo unspecified)
dose: 25.0 mg/kg/injection, schedule: Q01DX010 (ip), vehicle: carboxymethylcellulose (CMC)
  T/C: 67 % of control
dose: 50.0 mg/kg/injection, schedule: Q01DX010 (ip), vehicle: carboxymethylcellulose (CMC)
  T/C: 21 % of control
dose: 100.0 mg/kg/injection, schedule: Q01DX010 (ip), vehicle: carboxymethylcellulose (CMC)
  T/C: 36 % of control

## O=c1[nH]cc(F)c(=O)[nH]1
dose: 1.56 mg/kg/injection, schedule: Q01DX010 (ip), vehicle: saline
  T/C: 173 % of control
dose: 6.25 mg/kg/injection, schedule: Q01DX010 (ip), vehicle: saline
  T/C: 35 % of control
dose: 12.5 mg/kg/injection, schedule: Q01DX010 (ip), vehicle: saline
  T/C: 20 % of control

## O=C(Nc1ccc(C2=NCCN2)cc1)c1ccc(C(=O)Nc2ccc(C3=NCCN3)cc2)c(Cl)c1
dose: 1.62 mg/kg/injection, schedule: Q01DX010 (ip), vehicle: water
  T/C: 108 % of control
dose: 3.12 mg/kg/injection, schedule: Q01DX010 (ip), vehicle: water
  T/C: 152 % of control
dose: 6.25 mg/kg/injection, schedule: Q01DX010 (ip), vehicle: water
  T/C: 94 % of control
dose: 6.3 mg/kg/injection, schedule: Q01DX010 (ip), vehicle: water
  T/C: 64 % of control
dose: 7.5 mg/kg/injection, schedule: Q01DX010 (ip), vehicle: water
  T/C: 81 % of control and 83 % of control
dose: 12.5 mg/kg/injection, schedule: Q01DX010 (ip), vehicle: water
  T/C: 121 % of control
dose: 30.0 mg/kg/injection, schedule: Q01DX010 (ip), vehicle: water
  T/C: 55 % of control and 66 % of control

## CCOC(=O)NP(=O)(N1CC1(C)C)N1CC1(C)C (stereo unspecified)
dose: 125.0 mg/kg/injection, schedule: Q01DX010 (ip), vehicle: carboxymethylcellulose (CMC)
  T/C: 68 % of control
dose: 250.0 mg/kg/injection, schedule: Q01DX010 (ip), vehicle: carboxymethylcellulose (CMC)
  T/C: 20 % of control

## C1CN1c1nc(N2CC2)nc(N2CC2)n1
dose: 0.01 mg/kg/injection, schedule: Q01DX010 (ip), vehicle: saline
  T/C: 38 % of control
dose: 1.9 micrograms/kg/injection, schedule: Q01DX010 (ip), vehicle: saline
  T/C: 170 % of control
dose: 7.8 micrograms/kg/injection, schedule: Q01DX010 (ip), vehicle: saline
  T/C: 100 % of control
dose: 8.0 micrograms/kg/injection, schedule: Q01DX010 (ip), vehicle: saline
  T/C: 101 % of control
dose: 15.0 micrograms/kg/injection, schedule: Q01DX010 (ip), vehicle: saline
  T/C: 99 % of control
dose: 31.0 micrograms/kg/injection, schedule: Q01DX010 (ip), vehicle: saline
  T/C: 105 % of control
dose: 31.2 micrograms/kg/injection, schedule: Q01DX010 (ip), vehicle: saline
  T/C: 37 % of control
dose: 63.0 micrograms/kg/injection, schedule: Q01DX010 (ip), vehicle: saline
  T/C: 66 % of control
